Article PMC7693880, “Preparation and Evaluation of Amino Acid Conjugates of Celecoxib as Prodrugs to Improve the Pharmacokinetic and Therapeutic Properties of Celecoxib” (Pharmaceutics, 2020)
Structures can show the parent of a compound that is named as a salt.

How the values were obtained:
[1] = Apparent distribution coefficient (logD6.8) measurement, 1-octanol / pH 6.8 isotonic phosphate buffer; assay type: physicochemical; details: 37 °C; for logD: pH 6.8, 1-octanol / pH 6.8 isotonic phosphate buffer, read-out: Log D6.8 (apparent distribution coefficient)
Description: For this study, 1-octanol and pH 6.8 isotonic phosphate buffer (IPB) were pre-saturated with IPB and 1-octanol, respectively. 1-octanol (10 mL) was added to 500 μM of celecoxib, A1C, or N-GA1C in 10 mL IPB. The mixture was shaken for 1 h and left at 37 °C for 3 h. The concentration of celecoxib, A1C, G1C, or N-GA1C in the aqueous phase was analyzed by HPLC. The apparent partition coefficients were calculated using the equation (Co − Cw)/Cw, where Co and Cw represent the initial and equilibrium concentration of the drug in the aqueous phase, respectively.

[2] = Drug release study in cecal contents; assay type: in vitro ADME, Sprague Dawley rats; details: incubation with cecal contents, after 24 h
Description: Drug release study was performed with the celecoxib derivatives as described previously. Six-week-old male Sprague Dawley rats (250–260 g) were sacrificed using CO2, and a midline incision was made. The contents of the proximal small intestine, distal small intestine, and cecum, liver homogenate, or blood plasma were collected and suspended in IPB (20% (w/v)). A1C, G1C, or N-GA1C in the buffer (0.5 mL, 1 mM) was mixed with 0.5 mL of the suspension and then incubated at 37 °C under nitrogen gas. At the predetermined time points, the samples were extracted with 0.5 mL of ethyl acetate followed by centrifugation at 6000× g for 5 min. Methanol (1.0 mL) was added to the residue obtained from the evaporation of 0.1 mL of the organic layer. The solution was centrifuged at 20,000× g at 4 °C for 10 min. The concentrations of celecoxib, A1C, G1C, and N-GA1C in 20 μL of the supernatant were determined by HPLC.

[3] = Pharmacokinetic study after oral or intravenous administration; assay type: in vivo, Sprague Dawley rats; details: rat; for increase of the absolute BA of celecoxib: 20 mg/kg
Description: Blood samples were collected from the jugular vein using a heparinized syringe at predetermined times. Heparinized blood samples were immediately centrifuged at 6000× g for 5 min. Five-fold volume of ethyl acetate was mixed with plasma, centrifugation was performed at 6000× g for 5 min, and 1 mL of the organic solvent was evaporated. The residues were mixed with 0.1 mL of IPB and centrifuged at 20,000× g for 10 min at 4 °C. The concentration of celecoxib or N-GA1C in the samples was determined by HPLC. PK profiling was performed using PKsolver. Absolute BA and relative BA were calculated using the following equations: Absolute BA (F, %) = ((AUC0–∞)PO/dose PO)/((AUC0–∞)IV/dose IV); Relative BA (%) = ((AUC0–∞)A/dose A)/((AUC0–∞)B/dose B).

[4] = tested on: carrageenan-induced paw edema; assay: Carrageenan-induced rat paw edema model; assay type: in vivo, Sprague Dawley rats; details: oral 10 mg/kg (equivalent mass of celecoxib)
Description: Six-week-old male Sprague Dawley rats (250–260 g) were orally administered celecoxib (10 mg/kg), A1C (equivalent mass of celecoxib), G1C (equivalent mass of celecoxib), N-GA1C (equivalent mass of celecoxib), or IPB as a control. After 1 h, 0.1 mL of carrageenan (1%) was injected into the hind paw of the rats. Carrageenan-induced increase in paw volume (paw edema) was measured at predetermined time points (0, 3, 6, 12, and 24 h). The paw volume of rats up to the knee joint was measured using a plethysmometer. The degree of inhibition of paw edema (%) at each time point was calculated using the following equation: (Control volume − treatment group volume)/Control paw volume × 100.

[5] = male, Sprague Dawley, plasma, IV, 10 mg/kg

Compound | melting point [°C] | logD [1] | conversion to celecoxib [2] | increase of the absolute BA of celecoxib ([3]; oral, vs oral celecoxib) | volume reduction of paw edema ([4]; at 6 h) [%] | volume reduction of paw edema ([4]; at 24 h) [%] | further results
Cc1ccc(-c2cc(C(F)(F)F)nn2-c2ccc(S(=O)(=O)NC(=O)C(N)CCC(=O)O)cc2)cc1 (stereo not shown) (as salt: salt) [G1C, glutam-1-yl celecoxib] | 110 to 115 |  |  |  |  |  | 
Cc1ccc(-c2cc(C(F)(F)F)nn2-c2ccc(S(=O)(=O)NC(=O)C(N)CCC(=O)O)cc2)cc1 (stereo not shown) [G1C, glutam-1-yl celecoxib] |  | 0.8 | partially converted to celecoxib | three |  |  | Log D6.8 (apparent distribution coefficient) [1]: 0.81
Cc1ccc(-c2cc(C(F)(F)F)nn2-c2ccc(S(=O)(=O)NC(=O)C(CC(=O)O)NC(=O)CN)cc2)cc1 (stereo not shown) [N-GA1C, N-glycyl-aspart-1-yl celecoxib] |  | -0.13 |  |  | 32.42 ± 2.50 | 78.96 ± 1.56 | plasma concentration of N-GA1C ([3]; oral N-GA1C 10 mg/kg, for 24 h): not detected

The next lines start with results.

melting point [°C] | logD [1] | conversion to celecoxib [2] | increase of the absolute BA of celecoxib ([3]; oral, vs oral celecoxib) | Compound | volume reduction of paw edema ([4]; at 6 h) [%] | volume reduction of paw edema ([4]; at 24 h) [%] | further results
134 to 137 |  |  |  | Cc1ccc(-c2cc(C(F)(F)F)nn2-c2ccc(S(=O)(=O)NC(=O)[C@@H](N)CC(=O)O)cc2)cc1 (as salt: salt) [A1C, aspart-1-yl celecoxib] |  |  | 
 | 0.6 | partially converted to celecoxib | approximately two | Cc1ccc(-c2cc(C(F)(F)F)nn2-c2ccc(S(=O)(=O)NC(=O)[C@@H](N)CC(=O)O)cc2)cc1 [A1C, aspart-1-yl celecoxib] |  |  | increase in absolute BA ([3]; oral, 10 mg/kg, vs oral celecoxib): no increase
 | 4.01 |  |  | Cc1ccc(-c2cc(C(F)(F)F)nn2-c2ccc(S(N)(=O)=O)cc2)cc1 [Celecoxib] | 42.06 ± 4.69 | 20.99 ± 2.791 | Vd [3, 5]: 1.04 L/kg; clearance [3, 5]: 8.01 mL/min/kg; half-life [3, 5]: 1.5 h; AUC(0-inf) ([3]; male, Sprague Dawley, IV, 10 mg/kg, celecoxib in plasma): 6120 ± 520 ng·h/mL; AUC(0-t) ([3]; male, Sprague Dawley, IV, 10 mg/kg, celecoxib in plasma, read-out: AUC0–24): 5990 ± 440 ng·h/mL
